Assays:
[1] = molecular target: T1, Serine/threonine-protein kinase DCLK2 (Homo sapiens) (UniProt Q8N568); settings: at 10 µM
T1 sequence (whole entry): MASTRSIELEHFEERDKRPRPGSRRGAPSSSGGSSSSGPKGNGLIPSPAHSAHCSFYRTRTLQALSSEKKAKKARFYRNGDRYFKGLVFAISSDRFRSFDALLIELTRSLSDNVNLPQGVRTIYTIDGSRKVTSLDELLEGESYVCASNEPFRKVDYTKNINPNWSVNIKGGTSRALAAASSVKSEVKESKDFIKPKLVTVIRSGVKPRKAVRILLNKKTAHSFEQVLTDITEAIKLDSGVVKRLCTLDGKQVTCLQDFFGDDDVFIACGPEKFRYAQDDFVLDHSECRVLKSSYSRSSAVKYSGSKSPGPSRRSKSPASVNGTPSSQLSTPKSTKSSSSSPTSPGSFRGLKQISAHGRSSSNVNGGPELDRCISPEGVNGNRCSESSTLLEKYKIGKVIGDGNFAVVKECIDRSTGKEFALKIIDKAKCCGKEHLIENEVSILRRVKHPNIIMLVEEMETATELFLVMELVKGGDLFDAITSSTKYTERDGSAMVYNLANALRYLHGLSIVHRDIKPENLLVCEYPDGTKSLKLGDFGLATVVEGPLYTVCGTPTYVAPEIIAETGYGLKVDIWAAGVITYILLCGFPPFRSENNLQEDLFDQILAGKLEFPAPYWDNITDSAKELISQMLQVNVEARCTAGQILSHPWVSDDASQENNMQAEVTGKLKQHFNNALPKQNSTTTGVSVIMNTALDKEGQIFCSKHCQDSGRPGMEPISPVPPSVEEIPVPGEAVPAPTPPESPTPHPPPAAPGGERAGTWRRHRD

[2] = molecular target: Serine/threonine-protein kinase Nek7 (Homo sapiens) (UniProt Q8TDX7); test: Selectivity interaction (KinomeScan (DiscoverX)) EUB0000229b NEK7; settings: at 10 µM
[3] = tested on: Phosphatidylinositol 4,5-bisphosphate 3-kinase catalytic subunit alpha isoform (Homo sapiens), P42336 [I800L]; settings: at 10 µM
[4] = molecular target: Serine/threonine-protein kinase 16 (Homo sapiens, UniProt O75716); test: Selectivity interaction (KinomeScan (DiscoverX)) EUB0001550a STK16; settings: at 1 µM
Aurora kinase B = Aurora kinase B (Homo sapiens, UniProt Q96GD4); test: Selectivity interaction (Kinase panel (Invitrogen, enzymatic assay)) EUB0000162b AURKB
[5] = molecular target: T2, 5-hydroxytryptamine receptor 2C (Homo sapiens) (UniProt P28335); test: Selectivity interaction (Panel of kinases, GPCRs, ion channels and transporters (enzymatic assay)) EUB0000266bCl HTR2C
T2 sequence (whole entry): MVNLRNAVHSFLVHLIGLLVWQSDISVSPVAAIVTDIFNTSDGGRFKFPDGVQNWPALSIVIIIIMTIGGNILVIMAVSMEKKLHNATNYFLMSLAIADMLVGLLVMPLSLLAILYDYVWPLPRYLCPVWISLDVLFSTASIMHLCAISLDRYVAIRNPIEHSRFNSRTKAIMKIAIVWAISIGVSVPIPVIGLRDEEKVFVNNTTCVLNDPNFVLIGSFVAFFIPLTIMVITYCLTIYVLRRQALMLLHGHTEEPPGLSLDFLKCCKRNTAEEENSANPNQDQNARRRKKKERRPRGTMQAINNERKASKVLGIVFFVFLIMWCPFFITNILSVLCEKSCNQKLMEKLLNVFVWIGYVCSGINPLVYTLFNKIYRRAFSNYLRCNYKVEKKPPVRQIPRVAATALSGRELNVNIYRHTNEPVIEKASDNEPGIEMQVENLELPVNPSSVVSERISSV

[6] = molecular target: Receptor tyrosine-protein kinase erbB-4 (Homo sapiens, UniProt Q15303); test: Selectivity interaction (KinomeScan (DiscoverX)) EUB0001079a ERBB4; settings: at 1 µM
[7] = molecular target: Tyrosine-protein kinase Lyn (Homo sapiens, UniProt P07948); test: Selectivity interaction (Millipore kinase profiler) EUB0000124b LYN; settings: at 10 µM
[8] = molecular target: Tyrosine-protein kinase Fyn (Homo sapiens) (UniProt P06241); test: Selectivity interaction (ActivX KiNativ screen (kinase selectivity in THP-1 cell lysates)) EUB0000639a FYN; assay type: subcellular; settings: lysate
[9] = molecular target: Tyrosine-protein kinase JAK1 (Homo sapiens, UniProt P23458); test: Selectivity interaction (ActivX KiNativ screen (kinase selectivity in THP-1 cell lysates)) EUB0000639a JAK1; assay type: subcellular; settings: lysate, at 0.2 µM
[10] = molecular target: Hepatocyte growth factor receptor (Homo sapiens, UniProt P08581); test: Selectivity interaction (Kinase panel (enzymatic assay)) EUB0000595a MET
[11] = molecular target: Glycogen synthase kinase-3 alpha (Homo sapiens, UniProt P49840); test: Selectivity interaction (KinomeScan (DiscoverX)) EUB0000595a GSK3A; settings: at 10 µM
[12] = Selectivity interaction (KinomeScan (DiscoverX)) EUB0000045b PKNB
[13] = molecular target: Myosin light chain kinase, smooth muscle (Homo sapiens, UniProt Q15746); test: Selectivity interaction (KinomeScan (DiscoverX)) EUB0000045b MYLK; settings: at 1 µM
[14] = molecular target: Serine/threonine-protein kinase MARK1 (Homo sapiens) (UniProt Q9P0L2); test: Selectivity interaction (Kinase panel (literature)) EUB0001199aCl MARK1; settings: at 1 µM
[15] = molecular target: Cyclin-dependent kinase 7 (Homo sapiens, UniProt P50613); test: Selectivity interaction (Ambit KINOMEscan and KiNATiv profiling in Jurkat cells) EUB0000090b CDK7; assay type: cell-based; settings: at 1 µM
[16] = molecular target: Cyclin-dependent kinase 11B (Homo sapiens) (UniProt P21127); test: Selectivity interaction (Ambit KINOMEscan and KiNATiv profiling in Jurkat cells) EUB0000090b CDK11B; assay type: cell-based; settings: at 1 µM
[17] = molecular target: Ribosomal protein S6 kinase alpha-1 (Homo sapiens, UniProt Q15418); test: Selectivity interaction (ActivX KiNativ screen (ex vivo kinase selectivity in human PBMCs)) EUB0001619a RPS6KA1; assay type: cell-based; settings: PBMC, at 1 µM
Sequence of Ribosomal protein S6 kinase alpha-1 (Q15418 whole entry): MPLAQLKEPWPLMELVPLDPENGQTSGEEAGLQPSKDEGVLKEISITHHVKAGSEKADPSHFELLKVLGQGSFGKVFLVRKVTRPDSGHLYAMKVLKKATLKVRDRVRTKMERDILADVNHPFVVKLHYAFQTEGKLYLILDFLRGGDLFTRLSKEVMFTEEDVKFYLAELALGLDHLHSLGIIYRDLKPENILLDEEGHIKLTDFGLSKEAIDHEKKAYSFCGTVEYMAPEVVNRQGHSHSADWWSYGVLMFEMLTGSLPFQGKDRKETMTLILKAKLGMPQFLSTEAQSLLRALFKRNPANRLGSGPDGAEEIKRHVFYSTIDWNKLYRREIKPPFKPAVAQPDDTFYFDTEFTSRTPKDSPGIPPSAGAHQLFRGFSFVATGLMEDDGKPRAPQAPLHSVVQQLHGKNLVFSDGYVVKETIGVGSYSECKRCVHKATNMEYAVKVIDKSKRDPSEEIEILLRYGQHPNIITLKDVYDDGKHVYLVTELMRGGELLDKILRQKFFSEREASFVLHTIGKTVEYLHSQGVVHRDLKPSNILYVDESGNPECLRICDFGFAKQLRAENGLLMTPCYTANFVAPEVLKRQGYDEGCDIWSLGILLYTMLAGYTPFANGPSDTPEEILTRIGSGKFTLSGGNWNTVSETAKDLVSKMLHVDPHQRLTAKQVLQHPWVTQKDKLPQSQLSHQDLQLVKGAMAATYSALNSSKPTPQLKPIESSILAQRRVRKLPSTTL

Sequence of Tyrosine-protein kinase Fyn (Homo sapiens) (P06241 2-537 limits assumed): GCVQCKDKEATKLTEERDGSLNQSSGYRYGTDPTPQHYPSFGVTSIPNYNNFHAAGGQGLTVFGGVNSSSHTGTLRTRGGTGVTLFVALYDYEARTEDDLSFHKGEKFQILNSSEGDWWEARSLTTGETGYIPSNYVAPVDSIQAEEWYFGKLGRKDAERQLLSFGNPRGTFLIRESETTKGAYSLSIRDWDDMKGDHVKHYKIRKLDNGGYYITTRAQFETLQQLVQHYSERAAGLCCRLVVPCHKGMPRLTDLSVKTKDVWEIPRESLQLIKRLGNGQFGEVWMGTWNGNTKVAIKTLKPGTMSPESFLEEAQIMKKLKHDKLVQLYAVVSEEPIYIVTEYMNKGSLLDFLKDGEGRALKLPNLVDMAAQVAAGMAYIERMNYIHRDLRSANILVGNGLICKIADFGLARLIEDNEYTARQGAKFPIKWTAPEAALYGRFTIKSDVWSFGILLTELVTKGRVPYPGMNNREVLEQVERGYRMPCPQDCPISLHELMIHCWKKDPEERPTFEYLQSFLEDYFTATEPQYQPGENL
Sequence of Tyrosine-protein kinase Lyn (P07948 2-512 limits assumed): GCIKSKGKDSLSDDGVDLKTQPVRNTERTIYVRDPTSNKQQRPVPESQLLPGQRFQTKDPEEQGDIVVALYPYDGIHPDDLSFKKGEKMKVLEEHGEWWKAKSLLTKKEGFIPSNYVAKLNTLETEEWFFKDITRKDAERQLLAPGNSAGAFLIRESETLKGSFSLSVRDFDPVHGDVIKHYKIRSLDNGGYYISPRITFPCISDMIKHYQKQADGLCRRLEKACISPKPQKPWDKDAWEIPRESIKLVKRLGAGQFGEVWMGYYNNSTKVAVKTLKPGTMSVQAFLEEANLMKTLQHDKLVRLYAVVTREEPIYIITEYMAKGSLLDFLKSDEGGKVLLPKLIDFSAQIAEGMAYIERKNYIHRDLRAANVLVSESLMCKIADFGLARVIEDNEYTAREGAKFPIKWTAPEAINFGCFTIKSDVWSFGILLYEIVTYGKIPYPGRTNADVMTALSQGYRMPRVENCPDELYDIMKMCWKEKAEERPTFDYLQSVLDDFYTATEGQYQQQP
Sequence of Serine/threonine-protein kinase Nek7 (Homo sapiens) (Q8TDX7 whole entry, looked up, canonical isoform): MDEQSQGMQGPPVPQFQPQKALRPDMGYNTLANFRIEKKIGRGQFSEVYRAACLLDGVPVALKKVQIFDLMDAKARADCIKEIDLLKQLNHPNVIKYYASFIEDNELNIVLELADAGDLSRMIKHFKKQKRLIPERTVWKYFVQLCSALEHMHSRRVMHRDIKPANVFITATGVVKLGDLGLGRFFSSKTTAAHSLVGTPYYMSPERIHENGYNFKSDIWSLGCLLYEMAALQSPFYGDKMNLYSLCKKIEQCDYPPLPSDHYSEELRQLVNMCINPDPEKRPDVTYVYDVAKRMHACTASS
Sequence of Cyclin-dependent kinase 11B (Homo sapiens) (P21127 whole entry): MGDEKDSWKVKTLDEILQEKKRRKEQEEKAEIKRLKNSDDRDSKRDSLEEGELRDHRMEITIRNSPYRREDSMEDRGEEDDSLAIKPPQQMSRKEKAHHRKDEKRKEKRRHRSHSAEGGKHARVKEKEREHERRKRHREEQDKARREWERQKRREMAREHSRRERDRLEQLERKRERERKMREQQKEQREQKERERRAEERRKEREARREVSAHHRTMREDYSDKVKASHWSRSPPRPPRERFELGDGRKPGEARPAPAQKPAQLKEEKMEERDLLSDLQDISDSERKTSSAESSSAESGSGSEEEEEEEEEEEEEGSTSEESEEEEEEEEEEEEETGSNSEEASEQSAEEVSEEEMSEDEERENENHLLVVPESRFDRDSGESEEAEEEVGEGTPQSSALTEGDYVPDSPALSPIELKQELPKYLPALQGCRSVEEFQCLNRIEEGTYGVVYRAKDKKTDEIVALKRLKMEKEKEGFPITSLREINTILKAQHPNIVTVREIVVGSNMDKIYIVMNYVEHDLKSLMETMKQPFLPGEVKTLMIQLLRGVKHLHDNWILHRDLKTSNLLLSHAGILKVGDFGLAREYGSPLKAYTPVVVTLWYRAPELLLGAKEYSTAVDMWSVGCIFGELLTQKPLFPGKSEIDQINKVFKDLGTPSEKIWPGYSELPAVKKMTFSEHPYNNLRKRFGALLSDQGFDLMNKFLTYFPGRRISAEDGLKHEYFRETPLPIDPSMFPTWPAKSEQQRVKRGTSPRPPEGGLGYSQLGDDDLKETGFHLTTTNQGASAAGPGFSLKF
Sequence of Aurora kinase B (Q96GD4 whole entry): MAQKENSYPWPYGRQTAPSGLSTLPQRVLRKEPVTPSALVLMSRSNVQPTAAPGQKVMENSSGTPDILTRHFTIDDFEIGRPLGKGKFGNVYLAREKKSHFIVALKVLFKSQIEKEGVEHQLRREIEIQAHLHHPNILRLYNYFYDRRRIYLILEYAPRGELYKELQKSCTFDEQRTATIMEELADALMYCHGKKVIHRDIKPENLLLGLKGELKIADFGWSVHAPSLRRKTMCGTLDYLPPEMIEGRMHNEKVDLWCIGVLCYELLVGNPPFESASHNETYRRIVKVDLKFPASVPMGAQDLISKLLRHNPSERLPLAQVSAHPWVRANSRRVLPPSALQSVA
Sequence of Phosphatidylinositol 4,5-bisphosphate 3-kinase catalytic subunit alpha isoform (Homo sapiens), P42336 [I800L] (P42336 whole entry I800L, canonical isoform): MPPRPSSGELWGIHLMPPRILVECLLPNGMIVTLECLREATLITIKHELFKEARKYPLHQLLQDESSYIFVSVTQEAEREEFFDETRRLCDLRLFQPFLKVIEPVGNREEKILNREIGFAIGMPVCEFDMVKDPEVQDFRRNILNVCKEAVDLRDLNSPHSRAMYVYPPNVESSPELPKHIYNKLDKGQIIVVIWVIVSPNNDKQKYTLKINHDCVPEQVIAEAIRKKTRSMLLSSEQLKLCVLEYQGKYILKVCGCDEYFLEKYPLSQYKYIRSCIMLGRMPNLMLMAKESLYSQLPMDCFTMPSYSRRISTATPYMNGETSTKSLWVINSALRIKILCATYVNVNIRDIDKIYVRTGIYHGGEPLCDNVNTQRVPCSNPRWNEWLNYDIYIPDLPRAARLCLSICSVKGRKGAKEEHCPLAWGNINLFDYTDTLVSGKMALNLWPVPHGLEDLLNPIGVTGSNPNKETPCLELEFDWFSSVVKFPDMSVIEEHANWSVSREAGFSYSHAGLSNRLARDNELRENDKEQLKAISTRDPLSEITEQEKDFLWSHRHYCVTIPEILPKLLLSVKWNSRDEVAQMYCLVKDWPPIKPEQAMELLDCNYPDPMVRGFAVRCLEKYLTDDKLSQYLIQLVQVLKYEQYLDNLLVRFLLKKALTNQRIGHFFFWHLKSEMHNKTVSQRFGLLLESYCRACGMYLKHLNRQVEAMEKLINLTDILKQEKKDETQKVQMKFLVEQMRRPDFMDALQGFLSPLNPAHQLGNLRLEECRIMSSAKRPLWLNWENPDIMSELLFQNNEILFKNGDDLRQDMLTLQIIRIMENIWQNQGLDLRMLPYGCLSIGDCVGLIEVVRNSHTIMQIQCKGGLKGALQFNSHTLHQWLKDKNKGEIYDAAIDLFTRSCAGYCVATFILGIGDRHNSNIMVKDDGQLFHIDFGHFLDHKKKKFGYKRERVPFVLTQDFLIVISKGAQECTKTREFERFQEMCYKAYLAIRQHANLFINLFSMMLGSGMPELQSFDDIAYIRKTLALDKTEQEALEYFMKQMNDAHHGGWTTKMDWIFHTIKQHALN
Sequence of Cyclin-dependent kinase 7 (P50613 whole entry): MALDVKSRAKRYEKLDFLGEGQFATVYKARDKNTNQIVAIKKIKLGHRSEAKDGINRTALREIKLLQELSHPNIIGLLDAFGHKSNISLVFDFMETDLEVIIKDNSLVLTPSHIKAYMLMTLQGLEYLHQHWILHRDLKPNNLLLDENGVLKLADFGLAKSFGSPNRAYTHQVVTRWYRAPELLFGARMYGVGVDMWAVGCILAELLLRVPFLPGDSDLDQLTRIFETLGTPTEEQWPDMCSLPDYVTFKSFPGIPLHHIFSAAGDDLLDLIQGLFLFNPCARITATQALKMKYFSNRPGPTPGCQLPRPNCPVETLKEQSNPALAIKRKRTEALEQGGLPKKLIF
Sequence of Serine/threonine-protein kinase 16 (O75716 whole entry): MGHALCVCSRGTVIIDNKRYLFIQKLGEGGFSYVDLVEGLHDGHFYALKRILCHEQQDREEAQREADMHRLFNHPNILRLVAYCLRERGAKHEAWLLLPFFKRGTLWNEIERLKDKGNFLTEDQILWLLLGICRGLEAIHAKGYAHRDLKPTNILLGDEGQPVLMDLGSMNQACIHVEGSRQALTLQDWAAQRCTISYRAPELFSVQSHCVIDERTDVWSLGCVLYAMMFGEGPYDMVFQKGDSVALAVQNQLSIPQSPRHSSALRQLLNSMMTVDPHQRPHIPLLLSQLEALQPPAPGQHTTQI

CCN(CC)CCCCNc1ncc2cc(-c3cc(OC)cc(OC)c3)c(NC(=O)NC(C)(C)C)nc2n1
% of control [1]: 100%

COc1cc(N(C)c2ccnc3ccc(C(F)(F)F)cc23)cc(OC)c1OC
% binding [2]: 100%

CCC(=O)N1CCN(c2ccc(-n3c(=O)ccc4cnc5ccc(-c6cnc7ccccc7c6)cc5c43)cc2C(F)(F)F)CC1
% of control [3]: 0%

CN(C)CC#Cc1ccc2[nH]c3c(c2c1)-c1nc(N)ncc1CCC3
% of control [4]: 14%

CN(C)C(=O)Cn1cc(-c2ccc(-c3cncc4ccccc34)cc2)cn1
IC50 (Aurora kinase B): 809 nM

CCn1c(-c2nc3cc(C(=O)N4CCCC(N)C4)ccc3n2C)cc2ccccc21 (stereo not drawn)
pXC50 [5]: 4.7 M

Nc1cnc(N2CCc3cc(S(=O)(=O)Nc4c(F)cc(Cl)cc4F)cc(N4CCCC4=O)c32)nc1 [TP-020n]
% of control [6]: 100%

CC(=O)Nc1cccc(-n2c(=O)n(C3CC3)c(=O)c3c(Nc4ccc(I)cc4F)n(C)c(=O)c(C)c32)c1
% of control [7]: 95%

CC[C@@H]1[C@H](F)C(=O)N[C@@H]1COc1nccc2cc(C(N)=O)c(OC)cc12 [ZIMLOVISERTIB]
% of inhibition ([8]; at 0.01 µM): -12.7% | % of inhibition ([8]; at 0.04 µM): -16.1% | % of inhibition ([8]; at 0.2 µM): -5.4% | % of inhibition ([8]; at 1 µM): -3.3% | % of inhibition ([8]; at 5 µM): -18.6% | % of inhibition [9]: -1.1%

COCC(=O)NC/C=C/c1ccc2ncnc(Nc3ccc(Oc4ccc(C)nc4)c(C)c3)c2c1 [CP-724714]
IC50 [10]: > 10000 nM | % of control [11]: 100%

C=CC(=O)Nc1cc(-n2c(=O)ccc3cnc4ccc(-c5ccc(NS(C)(=O)=O)cc5)cc4c32)ccc1C
% of control ([12]; at 1 µM): 41% | % of control ([12]; at 10 µM): 90% | % of control [13]: 100%

CN1Cc2nccc(-c3cn(C)nc3-c3ccc(F)cc3)c2C1=O
% of inhibition [14]: 8%

CN(C)C/C=C/C(=O)Nc1ccc(C(=O)N2CCCC(Nc3ncc(Cl)c(-c4c[nH]c5ccccc45)n3)C2)cc1 (stereo not drawn)
% of control [15]: 28% | % of control [16]: 100%

N#Cc1cccc(-c2c[nH]c3ncnc(N4CCOCC4)c23)c1
% of inhibition [17]: -1%
